20 molecules from ChEMBL document CHEMBL3243930 (J Med Chem, 1979) can be followed below.

Molecules are shown by their SMILES. Values after ≈ are worked out from the molar mass of the structure shown. Bounds are passed on as bounds.

The nature of data set [1]: Inhibition of pigeon liver dihydrofolate reductase. Details: species or system Columba livia. The note with it: read-out: I50.
Data set [2] has as its system KB. In words: Cytotoxicity against human KB cells. The format is functional. As to conditions: read-out: ED50 (the source's name).
The subject of data set [3] is L1210. The data set can be described thus: Antitumor activity against mouse L1210 cells […] in mouse assessed as increase in life span at 100 mg/kg, ip qd from day 1 to day 9 relative to control. It is filed as functional. The note with it: route intraperitoneal.
In data set [4] the test system is Columba livia. In words: Potency index, ratio of I50 for MTX to I50 for compound against pigeon liver dihydrofolate reductase.
Data set [5] deals with KB. In words: Potency index, ratio of ED50 for MTX to ED50 for compound against human KB cells. The format is functional.
Data set [6] has as its system L1210. The data set can be described thus: Antitumor activity against mouse L1210 cells […] in mouse assessed as increase in life span at 0.67 mg/kg, ip qd from day 1 to day 9 relative to control. It is filed as functional. As to conditions: route intraperitoneal.
Data set [7] deals with L1210. The data set can be described thus: Antitumor activity against mouse L1210 cells […] in mouse assessed as increase in life span at 200 mg/kg, ip qd from day 1 to day 9 relative to control. It is filed as functional. As to conditions: route intraperitoneal.
Data set [8] has as its system L1210. In words: Antitumor activity against mouse L1210 cells […] in mouse assessed as increase in life span at 10 mg/kg, ip qd from day 1 to day 9 relative to control. The format is functional. As to conditions: route intraperitoneal.
In data set [9] the test system is L1210. In words: Antitumor activity against mouse L1210 cells […] in mouse assessed as increase in life span at 200 mg/kg, ip qd administered on day 2 and day 6 relative to control. The format is functional. The note with it: route intraperitoneal.
Data set [10] can be described thus: Dissociation constant, pKa of the compound. The format is physicochemical.
In data set [11] the test system is L1210. In words: Antitumor activity against mouse L1210 cells […] in mouse assessed as increase in life span at 50 mg/kg, ip qd from day 1 to day 9 relative to control. It is filed as functional. The note with it: route intraperitoneal.
Data set [12] is described as follows: Cytotoxicity against human Hep2 cells. The format is functional. The note with it: HEp-2, read-out: ED50 (the source's name).
The test system of data set [13] is HEp-2. In words: Potency index, ratio of ED50 for MTX to ED50 for compound against human Hep2 cells. It is filed as functional.
Data set [14] has as its system L1210. The data set can be described thus: Antitumor activity against mouse L1210 cells […] in mouse assessed as increase in life span at 20 mg/kg, ip qd from day 1 to day 9 relative to control. It is filed as functional. As to conditions: route intraperitoneal.
Data set [15] deals with L1210. The data set can be described thus: Antitumor activity against mouse L1210 cells […] in mouse assessed as increase in life span at 500 mg/kg, ip qd from day 1 to day 9 relative to control. The format is functional. The note with it: route intraperitoneal.
In data set [16] the test system is L1210. The data set can be described thus: Antitumor activity against mouse L1210 cells […] in mouse assessed as increase in life span at 1.5 mg/kg, ip qd from day 1 to day 9 relative to control. The note with it: route intraperitoneal. The format is functional.
Data set [17] deals with L1210. The data set can be described thus: Antitumor activity against mouse L1210 cells […] in mouse assessed as increase in life span at 0.44 mg/kg, ip qd from day 1 to day 9 relative to control. The format is functional. As to conditions: route intraperitoneal.
In data set [18] the test system is L1210. The data set can be described thus: Antitumor activity against mouse L1210 cells […] in mouse assessed as increase in life span at 25 mg/kg, ip qd from day 1 to day 9 relative to control. As to conditions: route intraperitoneal. The format is functional.
The subject of data set [19] is L1210. In words: Antitumor activity against mouse L1210 cells […] in mouse assessed as increase in life span at 1.3 mg/kg, ip qd from day 1 to day 9 relative to control. The format is functional. As to conditions: route intraperitoneal.

As to `CCN(Cc1cnc2nc(N)nc(N)c2n1)c1c(Cl)cc(C(=O)N[C@@H](CCC(=O)O)C(=O)O)cc1Cl`, the IC50 in [1] turned out to be 50 nM. In addition, the EC50 in data set [2] is 0.022 µg/mL (≈ 0.0409 µM). Moreover, the ILS at 100 mg/kg in data set [3] was determined as 70%. Also, in data set [4], the Ratio turned out to be 1.1. In addition, the “Ratio ED50” value in data set [5] was found to be 5.5.

As to `Nc1nc(N)c2nc(CNc3ccc(C(=O)N[C@@H](CCC(=O)O)C(=O)O)cc3)cnc2n1` [AMINOPTERIN], in [1], the IC50 was determined as 26 nM. For the same molecule, the EC50 in data set [2] was 0.003 µg/mL (≈ 0.00681 µM). In addition, the ILS at 0.67 mg/kg in [6] was found to be 74%. In addition, the Ratio in [4] worked out at 1. The “Ratio ED50” value in data set [5] is 0.75.

As for `Nc1nc(N)c2nc(CNc3ccc(CC(=O)N[C@@H](CC(=O)O)C(=O)O)cc3)cnc2n1`, the IC50 in [1] came out at 1000 nM. In [2], the EC50 is above 100 µg/mL. The ILS at 200 mg/kg in [7] is 29%. In addition, the Ratio in [4] worked out at 38.

Regarding `CCN(Cc1cnc2nc(N)nc(N)c2n1)c1ccc(C(=O)N[C@@H](CCC(=O)O)C(=O)O)cc1`, in data set [1], the IC50 is 45 nM. Moreover, the EC50 in data set [2] was 0.005 µg/mL (≈ 0.0107 µM). Moreover, the ILS at 10 mg/kg in [8] is 117%. Moreover, the Ratio in data set [4] amounted to 1. In data set [5], the “Ratio ED50” value came to 1.3.

Turning to `CN(Cc1cnc2nc(N)c([N+](=O)[O-])c(N)c2n1)c1ccc(C(=O)N[C@@H](CCC(=O)O)C(=O)O)cc1`, the IC50 in data set [1] was determined as 38000 nM. Also, the EC50 in data set [2] is above 100 µg/mL. Further, in data set [9], the ILS at 200 mg/kg is 1%. The molecule further gave a pKa in data set [10] of 4.3. For the same molecule, the Ratio in data set [4] came to 1400.

In the case of `CN(Cc1ccc(C(=O)N[C@@H](CCC(=O)O)C(=O)O)cc1)Cc1cnc2nc(N)nc(N)c2n1`, the IC50 in data set [1] stood at 750 nM. The EC50 in data set [2] is 0.043 µg/mL (≈ 0.0918 µM). The ILS at 50 mg/kg in [11] is 36%. For the same molecule, the Ratio in data set [4] worked out at 29. Besides, the “Ratio ED50” value in [5] worked out at 11.

On to `CN(Cc1cnc2nc(N)c(Br)c(N)c2n1)c1ccc(C(=O)N[C@@H](CCC(=O)O)C(=O)O)cc1`, for which the IC50 in [1] came to 2500 nM. Also, the EC50 in data set [2] was 76 µg/mL (≈ 143 µM). For the same molecule, in data set [9], the increase in lifespan (ILS) at 200 mg/kg is 1%. This molecule also came in with a pKa in data set [10] of 5.1. In addition, in [4], the Ratio was determined as 190. The “Ratio ED50” value in data set [5] is reported as 19000.

In the case of `CN(Cc1cnc2nc(N)cc(N)c2n1)c1ccc(C(=O)N[C@@H](CCC(=O)O)C(=O)O)cc1`, in data set [1], the IC50 turned out to be 63 nM. Also, in data set [12], the EC50 stood at 0.05 µg/mL (≈ 0.11 µM). The ILS at 100 mg/kg in [3] was 64%. Moreover, in [4], the Ratio was determined as 4.8. The “Ratio ED50” value in [13] is 13.

For `Nc1nc(N)c2nc(CNc3ccc(S(=O)(=O)N[C@@H](CCC(=O)O)C(=O)O)cc3)cnc2n1`, the IC50 in data set [1] worked out at 1100 nM. The EC50 in data set [2] is 45 µg/mL (≈ 94.4 µM). In addition, the ILS at 100 mg/kg in [3] is 27%. Also, the Ratio in [4] is 39. Besides, the “Ratio ED50” value in data set [5] was found to be 11000.

For the molecule `Nc1nc(N)c2nc(CN(Cc3ccccc3)c3ccc(C(=O)N[C@@H](CCC(=O)O)C(=O)O)cc3)cnc2n1`, the IC50 in data set [1] was 14000 nM. In addition, the EC50 in data set [2] is above 100 µg/mL. Also, the Ratio in data set [4] is 310.

Regarding `Nc1nc(N)c2nc(CNc3ccc(C(=O)NC(CCCCC(=O)O)C(=O)O)cc3)cnc2n1` (stereo unspecified), the IC50 in [1] came to 13 nM. Moreover, the EC50 in data set [2] stood at 0.025 µg/mL (≈ 0.0534 µM). The ILS at 20 mg/kg in [14] worked out at 57%. In data set [4], the Ratio was 0.5. Further, in data set [5], the “Ratio ED50” value amounted to 6.3.

Turning to `Nc1nc(N)c2nc(CNc3ccc(CC(=O)N[C@@H](CCC(=O)O)C(=O)O)cc3)cnc2n1`, in data set [1], the IC50 worked out at 380 nM. Further, in [2], the EC50 is 41 µg/mL (≈ 90.2 µM). Besides, the ILS at 500 mg/kg in data set [15] was 35%. Besides, the Ratio in data set [4] turned out to be 15. Also, the “Ratio ED50” value in [5] was 10000.

In the case of `CN(Cc1cnc2nc(N)nc(N)c2n1)c1ccc(C(=O)N[C@@H](CCC(=O)O)C(=O)O)cc1` [METHOTREXATE], the IC50 in [1] was 26 nM. In data set [2], the EC50 came out at 0.004 µg/mL (≈ 0.0088 µM). In addition, the ILS at 1.5 mg/kg in data set [16] stood at 72%.

As for `CN(CCCCC(=O)N[C@@H](CCC(=O)O)C(=O)O)Cc1cnc2nc(N)nc(N)c2n1`, in data set [1], the IC50 was 20000 nM. Besides, the EC50 in data set [2] is above 100 µg/mL. Moreover, the Ratio in data set [4] was 770.

In the case of `Nc1nc(N)c2nc(CNc3ccc(C(=O)N[C@@H](CCC(=O)O)C(=O)O)nc3)cnc2n1`, in [1], the IC50 was found to be 30 nM. Besides, the EC50 in data set [2] was 0.006 µg/mL (≈ 0.0136 µM). In addition, the increase in life span (ILS) at 0.44 mg/kg in [17] was 69%. In addition, the Ratio in data set [4] stood at 1.2. The “Ratio ED50” value in [5] came to 1.5.

In the case of `Nc1nc(N)c2nc(CNc3ccc(C(=O)NCCCC(=O)O)cc3)cnc2n1`, the IC50 in [1] was determined as 380 nM. Besides, the EC50 in data set [2] was above 100 µg/mL. For the same molecule, the ILS at 25 mg/kg in [18] turned out to be 1%. Besides, the Ratio in data set [4] was found to be 15.

For the molecule `Nc1nc(N)c2nc(CNc3ccc(C(=O)NCC(=O)O)cc3)cnc2n1`, the IC50 in [1] was 1100 nM. In addition, the EC50 in [2] came out at 88 µg/mL (≈ 239 µM). Also, the Ratio in [4] is 42. Moreover, the “Ratio ED50” value in data set [5] was found to be 22000.

On to `Nc1nc(N)c2nc(CNc3ccc(CCC(=O)N[C@@H](CCC(=O)O)C(=O)O)cc3)cnc2n1`, for which the IC50 in [1] was determined as 460 nM. For the same molecule, in [2], the EC50 was determined as 37 µg/mL (≈ 79 µM). The ILS at 500 mg/kg in data set [15] turned out to be 1%. In [4], the Ratio is 33. Besides, in data set [5], the “Ratio ED50” value worked out at 9300.

As for `Nc1nc(N)c2nc(COc3ccc(C(=O)N[C@@H](CCC(=O)O)C(=O)O)cc3)cnc2n1`, the IC50 in data set [1] was found to be 510 nM. In addition, the EC50 in data set [2] is 3.5 µg/mL (≈ 7.93 µM). For the same molecule, the increase in lifespan (ILS) at 1.3 mg/kg in data set [19] was found to be 32%. Further, the Ratio in [4] was 20. Besides, in data set [5], the “Ratio ED50” value amounted to 875.

With `Nc1nc(N)c2nc(CN(c3ccccc3)c3ccc(C(=O)N[C@@H](CCC(=O)O)C(=O)O)cc3)cnc2n1`, in data set [1], the IC50 turned out to be 280 nM. The EC50 in [2] turned out to be 26 µg/mL (≈ 50.3 µM). The Ratio in [4] turned out to be 11. In [5], the “Ratio ED50” value is recorded as 6500.
